Experimental data from US11083725B2 (priority 2014, dated 2021).

Test system: NHBE cells
Assay: Biolog metabolic array: substrate use by NHBE cells with or without CA09 infection
Type: cell-based, human
Details: for Substrate use, 590 nm absorbance normalized to zero hour, 1 hr: Biolog PMM2, 1 hr; for Substrate use, 590 nm absorbance normalized to zero hour, 5 hr: Biolog PMM2, 5 hr; for Substrate use, 590 nm absorbance normalized to zero hour, 7 hr: Biolog PMM2, 7 hr; for Substrate use, 590 nm absorbance normalized to zero hour, 0 hr: Biolog PMM2, 0 hr
[1] = Control (uninfected) NHBE cells
[2] = Virus (CA09-infected NHBE cells, MOI 1)
[3] = Virus: CA09-infected NHBE cells, MOI 1, Biolog PMM2
[4] = Virus (CA09-infected, MOI 1) NHBE cells
[5] = Virus (CA09, MOI 1) infected NHBE cells

Compound	590 nm absorbance normalized to zero hour (substrate use), 1 hr [1]	590 nm absorbance normalized to zero hour (substrate use), 2 hr [1]	590 nm absorbance normalized to zero hour (substrate use), 3 hr [1]	590 nm absorbance normalized to zero hour (substrate use), 4 hr [1]	590 nm absorbance normalized to zero hour (substrate use), 6 hr [1]	590 nm absorbance normalized to zero hour (substrate use), 8 hr [1]	590 nm absorbance normalized to zero hour (substrate use), 9 hr [1]	590 nm absorbance normalized to zero hour (substrate use), 10 hr [1]	590 nm absorbance normalized to zero hour (substrate use), 11 hr [1]	Substrate use, 590 nm absorbance normalized to zero hour, 1 hr [1]	Substrate use, 590 nm absorbance normalized to zero hour, 5 hr [1]	Substrate use, 590 nm absorbance normalized to zero hour, 7 hr [1]	590 nm absorbance normalized to zero hour (substrate use), 1 hr [3]	590 nm absorbance normalized to zero hour (substrate use), 2 hr [3]	590 nm absorbance normalized to zero hour (substrate use), 3 hr [3]	590 nm absorbance normalized to zero hour (substrate use), 4 hr [3]	590 nm absorbance normalized to zero hour (substrate use), 5 hr [3]	590 nm absorbance normalized to zero hour (substrate use), 6 hr [3]	590 nm absorbance normalized to zero hour (substrate use), 7 hr [3]	590 nm absorbance normalized to zero hour (substrate use), 8 hr [3]	also measured
O=C(O)CC(CC(=O)O)C(=O)O [Tricarballylic Acid]	1.07	1.03	0.79	1.20	0.35	0.54	0.83	0.74	0.59	1.07	0.72	0.89	0.20	0.25	0.29	0.29	0.32	0.34	0.36	0.36	590 nm absorbance normalized to zero hour (substrate use), 1 hr [2]: 0.20; 590 nm absorbance normalized to zero hour (substrate use), 2 hr [2]: 0.25; 590 nm absorbance normalized to zero hour (substrate use), 3 hr [2]: 0.29; 590 nm absorbance normalized to zero hour (substrate use), 4 hr [2]: 0.29; 590 nm absorbance normalized to zero hour (substrate use), 5 hr [2]: 0.32; 590 nm absorbance normalized to zero hour (substrate use), 6 hr [2]: 0.34; 590 nm absorbance normalized to zero hour (substrate use), 7 hr [2]: 0.36; 590 nm absorbance normalized to zero hour (substrate use), 8 hr [2]: 0.36; 590 nm absorbance normalized to zero hour (substrate use), 9 hr [2]: 0.39; 590 nm absorbance normalized to zero hour (substrate use), 10 hr [2]: 0.40; 590 nm absorbance normalized to zero hour (substrate use), 11 hr [2]: 0.38; 590 nm absorbance normalized to zero hour (substrate use), 9 hr [3]: 0.39; 590 nm absorbance normalized to zero hour (substrate use), 10 hr [3]: 0.40; 590 nm absorbance normalized to zero hour (substrate use), 11 hr [3]: 0.38
O=C(CO)[C@@H](O[C@H]1O[C@H](CO)[C@@H](O)[C@H](O)[C@H]1O)[C@H](O)[C@H](O)CO [Turanose]	0.23	0.31	0.36	0.40	0.49	0.51	0.57	0.57	0.60	0.23	0.55	0.44	0.20	0.28	0.34	0.36	0.44	0.48	0.51	0.56	590 nm absorbance normalized to zero hour (substrate use), 0 hr [1]: 1.00; Substrate use, 590 nm absorbance normalized to zero hour, 0 hr [1]: 1.00; 590 nm absorbance normalized to zero hour (substrate use), 0 hr [4]: 1.00; 590 nm absorbance normalized to zero hour (substrate use), 1 hr [4]: 0.20; 590 nm absorbance normalized to zero hour (substrate use), 2 hr [4]: 0.28; 590 nm absorbance normalized to zero hour (substrate use), 3 hr [4]: 0.34; 590 nm absorbance normalized to zero hour (substrate use), 4 hr [4]: 0.36; 590 nm absorbance normalized to zero hour (substrate use), 5 hr [4]: 0.44; 590 nm absorbance normalized to zero hour (substrate use), 6 hr [4]: 0.48; 590 nm absorbance normalized to zero hour (substrate use), 7 hr [4]: 0.51; 590 nm absorbance normalized to zero hour (substrate use), 8 hr [4]: 0.56; 590 nm absorbance normalized to zero hour (substrate use), 9 hr [4]: 0.61; 590 nm absorbance normalized to zero hour (substrate use), 10 hr [4]: 0.60; 590 nm absorbance normalized to zero hour (substrate use), 11 hr [4]: 0.55; 590 nm absorbance normalized to zero hour (substrate use), 0 hr [3]: 1.00; 590 nm absorbance normalized to zero hour (substrate use), 9 hr [3]: 0.61; 590 nm absorbance normalized to zero hour (substrate use), 10 hr [3]: 0.60; 590 nm absorbance normalized to zero hour (substrate use), 11 hr [3]: 0.55
OC[C@@H](O)[C@H](O)[C@@H](O)CO [Xylitol]	1.02	1.53	1.57	1.01	0.40	1.49	1.02	0.97	0.97	1.02	1.51	1.01									Substrate use, 590 nm absorbance normalized to zero hour, 1 hr [5]: 1.69; Substrate use, 590 nm absorbance normalized to zero hour, 5 hr [5]: 3.95; Substrate use, 590 nm absorbance normalized to zero hour, 7 hr [5]: 4.50; 590 nm absorbance normalized to zero hour (substrate use), 1 hr [4]: 1.69; 590 nm absorbance normalized to zero hour (substrate use), 2 hr [4]: 2.39; 590 nm absorbance normalized to zero hour (substrate use), 3 hr [4]: 3.14; 590 nm absorbance normalized to zero hour (substrate use), 4 hr [4]: 3.34; 590 nm absorbance normalized to zero hour (substrate use), 6 hr [4]: 4.25; 590 nm absorbance normalized to zero hour (substrate use), 8 hr [4]: 4.55; 590 nm absorbance normalized to zero hour (substrate use), 9 hr [4]: 5.13; 590 nm absorbance normalized to zero hour (substrate use), 10 hr [4]: 4.85; 590 nm absorbance normalized to zero hour (substrate use), 11 hr [4]: 5.48
OC[C@H]1O[C@@H]2O[C@H]3[C@H](O)[C@@H](O)[C@@H](O[C@H]4[C@H](O)[C@@H](O)[C@@H](O[C@H]5[C@H](O)[C@@H](O)[C@@H](O[C@H]6[C@H](O)[C@@H](O)[C@@H](O[C@H]7[C@H](O)[C@@H](O)[C@@H](O[C@H]1[C@H](O)[C@H]2O)O[C@@H]7CO)O[C@@H]6CO)O[C@@H]5CO)O[C@@H]4CO)O[C@@H]3CO [a-Cyclo-dextrin]	1.89	2.66	3.24	3.50	4.31	5.25	5.99	6.37	5.86	1.89	4.31	4.96	1.86	2.62	2.99	3.18	3.75	4.06	4.29	4.56	590 nm absorbance normalized to zero hour (substrate use), 0 hr [1]: 1.00; Substrate use, 590 nm absorbance normalized to zero hour, 0 hr [1]: 1.00; 590 nm absorbance normalized to zero hour (substrate use), 0 hr [4]: 1.00; 590 nm absorbance normalized to zero hour (substrate use), 1 hr [4]: 1.86; 590 nm absorbance normalized to zero hour (substrate use), 2 hr [4]: 2.62; 590 nm absorbance normalized to zero hour (substrate use), 3 hr [4]: 2.99; 590 nm absorbance normalized to zero hour (substrate use), 4 hr [4]: 3.18; 590 nm absorbance normalized to zero hour (substrate use), 5 hr [4]: 3.75; 590 nm absorbance normalized to zero hour (substrate use), 6 hr [4]: 4.06; 590 nm absorbance normalized to zero hour (substrate use), 7 hr [4]: 4.29; 590 nm absorbance normalized to zero hour (substrate use), 8 hr [4]: 4.56; 590 nm absorbance normalized to zero hour (substrate use), 9 hr [4]: 4.96; 590 nm absorbance normalized to zero hour (substrate use), 10 hr [4]: 5.19; 590 nm absorbance normalized to zero hour (substrate use), 11 hr [4]: 4.09; 590 nm absorbance normalized to zero hour (substrate use), 0 hr [3]: 1.00; 590 nm absorbance normalized to zero hour (substrate use), 9 hr [3]: 4.96; 590 nm absorbance normalized to zero hour (substrate use), 10 hr [3]: 5.19; 590 nm absorbance normalized to zero hour (substrate use), 11 hr [3]: 4.09
